Laboratory results taken from patent publication US20210052771A1, “NANOPARTICULATE MINERALIZED COLLAGEN GLYCOSAMINOGLYCAN SCAFFOLD WITH AN ANTI-RESORPTION FACTOR” (THE REGENTS OF THE UNIVERSITY OF CALIFORNIA, priority 2018, published 2021).

Legend:
[1] = system: canonical BMP receptor signaling pathway; assay: Western blot of hMSCs on Col-GAG and MC-GAG with DMH1; assay type: cell-based, human; settings: 50 μM
Protocol: (§1) Osteogenic differentiation of hMSCs on Col-GAG and MC-GAG: 3×10^5 hMSCs were seeded onto 8 mm discs of CG-GAG and MC-GAG scaffolds in proliferation media. 24 h after seeding, media was switched to osteogenic differentiation media consisting of 10 mM β-glycerophosphate, 50 μg/mL ascorbic acid, and 0.1 μM dexamethasone. For inhibitor studies, scaffolds were treated or untreated with dorsomorphin homologue 1 (DMH1; Sigma-Aldrich) or PD98059 (Cell Signaling Technologies, Beverly, Mass.) separately, all at a concentration of 50 μM. Fresh DMH1 and PD98059 were added to each media change every 3 days.
(§2) Western blot: Lysates were prepared from scaffolds at 0, 4, 14, and 24 days of culture using SDS sample buffer and equal amounts were subjected to 4-20% SDS-PAGE (Bio-Rad, Hercules, Calif.). Western blot analysis was carried out with antibodies against OPG, RANKL, phosphorylated small mothers against decapentaplegic 1/5 (p-Smad1/5), total Smad5, phosphorylated extracellular regulated kinase 1/2 (p-ERK1/2), total ERK1/2, and (3-actin followed by 1:4000 dilutions of HRP-conjugated IgG antibodies (Bio-Rad, Hercules, Calif.) and an enhanced chemiluminescent substrate (Thermo Scientific, Rockford, Ill.). For detection of p-Smad1/5 and total Smad5, 10 μg of lysate was loaded per lane. For detection of OPG, RANKL, p-ERK1/2, total ERK1/2, and β-actin, 20 μg of lysate was loaded per lane. All antibodies were obtained from Cell Signaling Technologies (Beverly, Mass.) with the exception of RANKL, OPG and β-actin antibodies which were obtained from Santa Cruz Biotechnology (Santa Cruz, Calif.). Imaging analysis was carried out using ImageJ (NIH, Bethesda, Md.).

[2] = system: MEK1/ERK1/2 signaling pathway; assay: Western blot of hMSCs on Col-GAG and MC-GAG with PD98059; assay type: cell-based, human; settings: 50 μM
Protocol: as §1, §2

[3] = all timepoints, either material

CC(C)Oc1ccc(-c2cnc3c(-c4ccnc5ccccc45)cnn3c2)cc1 [DMH1, dorsomorphin homologue 1]
total Smad5, total ERK1/2, RANKL, or actin [1]: No differences
phosphorylated ERK1/2 ([1]; MC-GAG at day 4): small elevation
phosphorylation of Smad1/5 [1, 3]: partially decreased
OPG expression ([1]; both Col-GAG and MC-GAG, particularly day 14): increased

COc1cccc(-c2cc(=O)c3ccccc3o2)c1N [PD98059]
phosphorylated Smad1/5, total Smad5, total ERK1/2, or actin [2]: no effects
OPG protein expression ([2]; Col-GAG): no differences
RANKL expression ([2]; Col-GAG): no differences
OPG protein expression ([2]; MC-GAG, all timepoints): decreased
RANKL expression ([2]; MC-GAG, particularly day 24): downregulated
phosphorylated ERK1/2 [2, 3]: decreased
